The OPERA property sets (Mansouri et al. 2018)

Conditions: for log10 BCF / log10 biotransformation half-life (days): fish

| Structure (SMILES) | melting point [°C] | boiling point [°C] | other results |
| --- | --- | --- | --- |
| Cc1n[nH]c(=O)[nH]c1=O | 211 |  |  |
| COc1ccc(C(=O)c2ccccc2C(=O)O)cc1 | 146 |  |  |
| Cc1c(F)c(F)c(C)c(F)c1F | 36 | 144 |  |
| O=Nc1ccc(O)c(N=O)c1O | 168 |  |  |
| Oc1ccc(Oc2ccccc2)cc1 | 84 |  |  |
| CCCCCCCC/C=C\CCCCCCCC(=O)[O-].[NH4+] | 71 |  |  |
| CC1(C)[C@H](C(=O)O[C@H](C#N)c2cccc(Oc3ccccc3)c2)[C@@H]1/C=C\C(=O)OC(C(F)(F)F)C(F)(F)F | 81.5 |  | log10 vapour pressure (mmHg): -9.48 |
| CCC(C(C)=O)C(C)=O |  | 178 |  |
| O=[N+]([O-])c1ccc(Sc2ccccc2)cc1 | 56 |  |  |
| NC(=S)c1c(Cl)cccc1Cl | 152 |  | log10 Koc (L/kg): 2.26; log10 vapour pressure (mmHg): -6 |
| CC(C)(Oc1ccc(Cl)cc1)C(=O)O | 118 |  |  |
| IC(I)I | 119 | 218 |  |
| CCCCC(N)=O | 106 | 225 |  |
| CC(C)COCOCC(C)C |  | 166 |  |
| CCCCCO | -78.9 | 138 | log10 Henry constant (atm·m³/mol): -4.89; log10 Koa: 4.69; log10 Koc (L/kg): 0.7; log10 vapour pressure (mmHg): 0.342; ready biodegradability: readily biodegradable |
| C/C=C/C(=O)OC | -42 | 120 |  |
| O=C(OOC(=O)c1ccc(Cl)cc1Cl)c1ccc(Cl)cc1Cl | 106 |  | ready biodegradability: not readily biodegradable |
| CCCCCCCCCCCCCCCCCCCCCCCCCCCCCCCC | 69.7 | 467 | log10 biodegradation half-life (days): 2.45; ready biodegradability: readily biodegradable |
| NNC(=O)c1ccccc1O | 148 |  |  |
| CCCCCCCC/C=C\CCCCCCCCCCCC(N)=O | 77.5 |  | ready biodegradability: readily biodegradable |
| O=C(CCCN1CC=C(n2c(=O)[nH]c3ccccc32)CC1)c1ccc(F)cc1 | 146 |  |  |
| c1ccc(CC2CCNCC2)cc1 | 16.8 | 270 |  |
| Clc1cccc(Oc2ccc(Cl)cc2Cl)c1 |  |  | log10 vapour pressure (mmHg): -3.74 |
| C=C=CCCCC |  | 106 |  |
| CCCCCCCCCCCCCCO | 39.5 | 289 | log10 vapour pressure (mmHg): -3.96; ready biodegradability: readily biodegradable |

| Structure (SMILES) | melting point [°C] | boiling point [°C] | other results |
| --- | --- | --- | --- |
| CCOC(=O)NCc1ccccc1 | 49 | 230 |  |
| CN(C(=O)N(C)c1ccccc1)c1ccccc1 | 122 | 350 |  |
| O=C=Nc1ccc([N+](=O)[O-])cc1 | 57 |  |  |
| CC1=C(C)CCC1 | -90.4 | 106 |  |
| O=c1cc[nH]c2cc(C(F)(F)F)ccc12 | 268 |  |  |
| Clc1ccc(Oc2ccccc2Cl)cc1Cl |  |  | log10 vapour pressure (mmHg): -3.85 |
| CCc1ccccc1[N+](=O)[O-] | -12.3 | 232 | ready biodegradability: not readily biodegradable; log10 BCF: 1.11; log10 biotransformation half-life (days): -0.56 |
| CNCCCC12CCC(c3ccccc31)c1ccccc12 | 93 |  |  |
| O=c1cccccc1O | 50.8 |  |  |
| C#CCOC(=O)[C@@H](C)Oc1ccc(Oc2ncc(Cl)cc2F)cc1 | 59.5 |  | log10 vapour pressure (mmHg): -7.62 |
| Clc1cc(Cl)c2cccc(Cl)c2c1 |  |  | log10 Koa: 7.32 |
| CC(C)(C)C(=O)CCl | -13 | 172 |  |
| Cc1cc(N)ccc1O | 176 |  |  |
| C=Cc1ccc(C=C)cc1 | 31 |  | ready biodegradability: not readily biodegradable; log10 BCF: 2.48; log10 biotransformation half-life (days): 0.5 |
| CNCCOC(=O)/C=C1/CC[C@H]2[C@@H]([C@@H](O)C[C@@H]3[C@]2(C)CCC[C@]3(C)C(=O)OC)[C@H]1C | 115 |  |  |
| O=[N+]([O-])c1ccc2[nH]nnc2c1 | 217 |  |  |
| CN(C)C=Nc1c(I)cc(I)c(CCC(=O)O)c1I | 168 |  |  |
| S=C(c1ccccc1)c1ccccc1 | 53.5 |  |  |
| CC(C)(C)C(=O)C(=O)O | 90.5 | 189 |  |
| Nc1cccc2cc3ccccc3nc12 | 108 |  |  |
| CC(Br)C(C)Br (stereo not drawn) | -24 | 161 | log10 vapour pressure (mmHg): 0.58 |
| CC(C)OC(=O)C1(S(=O)(=O)c2ccc(Cl)cc2)CCCC1 | 92.5 |  |  |
| CCc1c(C(=O)O)c(=O)cnn1-c1ccc(Cl)cc1 | 269 |  |  |
| CC(C)OC(=O)OOC(=O)OC(C)C | 10 |  |  |
| Nc1cccc(N)n1 | 122 | 285 | ready biodegradability: not readily biodegradable |

| Structure (SMILES) | melting point [°C] | boiling point [°C] | other results |
| --- | --- | --- | --- |
| COC(=O)C(=O)OC | 54.3 | 164 | log10 vapour pressure (mmHg): 0.0584 |
| Cc1cccc(C)c1 | -47.8 | 139 | log10 Henry constant (atm·m³/mol): -2.14; log10 Koa: 3.78; log10 Koc (L/kg): 2.25; log10 biodegradation half-life (days): 1; log10 vapour pressure (mmHg): 0.919; ready biodegradability: readily biodegradable; log10 BCF: 1.17 |
| O=c1[nH]cc(C(F)(F)F)c(=O)[nH]1 | 316 |  |  |
| N#Cc1ccccc1 | -12.7 | 191 | log10 Koa: 4.46; log10 vapour pressure (mmHg): -0.115; ready biodegradability: readily biodegradable |
| CNc1nc(NC(C)C)nc(SC)n1 | 85 | 345 | log10 vapour pressure (mmHg): -6 |
| NCCc1cnc[nH]1 | 86 |  |  |
| NCc1ccccn1 |  | 203 |  |
| COC(=O)c1ccccc1C(=O)c1ccccc1 | 52 | 351 | ready biodegradability: not readily biodegradable; log10 BCF: 1.15; log10 biotransformation half-life (days): -1.3 |
| CCC(=O)c1ccc2ccccc2c1 | 60 | 313 |  |
| Cc1cc(-c2ccc(N=C=O)c(C)c2)ccc1N=C=O | 71 |  |  |
| CN1CCC(CN2c3ccccc3Sc3ccccc32)C1 (stereo not drawn) | 87.5 |  |  |
| CNC(C)CCC=C(C)C (stereo not drawn) |  | 177 |  |
| CCCCCCCCCCOC(=O)c1ccccc1C(=O)OCCCCCC | -4 |  |  |
| CC1CCCSC1 (stereo not drawn) | -60 | 158 |  |
| CC(c1ccccc1)(c1ccccc1)c1ccccc1 | 95 |  |  |
| CCNc1nsc2ccccc12 | 78 |  |  |
| Cc1cc2c(cc1Nc1ccccc1)C1(OC(=O)c3ccccc31)c1ccc(N(C)C3CCCCC3)cc1O2 (stereo not drawn) |  |  | ready biodegradability: not readily biodegradable |
| Nc1ccc(Oc2ccccc2)cc1 | 83 |  |  |
| CCc1ccc(C)c(C)c1 | -66.9 | 190 | log10 biodegradation half-life (days): 0.699; log10 vapour pressure (mmHg): -0.126 |
| NCc1cc(O)no1 | 175 |  |  |
| COc1cc2c(c(O)c1OC)CNCC2 | 188 |  |  |
| CC(=O)OC(OC(C)=O)c1cccc([N+](=O)[O-])c1 | 72 |  |  |
| C1CCC2(CC1)CCCCC2 |  | 207 |  |
| COc1c(C)c2c(c(O)c1C/C=C(\C)CCC(=O)O)C(=O)OC2 | 141 |  |  |
| O=C(CC(=O)C(F)(F)F)C(F)(F)F |  | 70 |  |

| Structure (SMILES) | melting point [°C] | boiling point [°C] | other results |
| --- | --- | --- | --- |
| CN(C)C(CSC(N)=O)CSC(N)=O |  |  | ready biodegradability: not readily biodegradable |
| CCN(CC)C(=O)COC(=O)c1ccccc1 | 72.5 |  |  |
| CC(=O)CCCC(=O)O | 13.5 | 274 |  |
| CCC(=O)C=Cc1ccccc1 | 38.5 |  |  |
| CNC(=O)ON=CC(C)(C)SC | 99 |  | log10 Koc (L/kg): 1.5; log10 vapour pressure (mmHg): -4.46 |
| O=C(Nc1ccc2nn(C3CCCCC3)nc2c1)c1ccccc1 | 212 |  |  |
| O=Cc1ccccc1O[C@@H]1O[C@H](CO)[C@@H](O)[C@H](O)[C@H]1O | 175 |  |  |
| O=C(O)C(F)(F)C(F)(F)F |  | 96.5 |  |
| CCCCCCCCCCCCC(=O)OC | 6.5 |  | log10 vapour pressure (mmHg): -2.89 |
| CCCCCCCCC=CCCCCCCCC(=O)OCC(O)C1OCC(O)C1O (stereo not drawn) |  |  | ready biodegradability: readily biodegradable |
| ClCc1ccc(CCl)cc1 | 100 |  |  |
| FC(F)(Cl)CCl | -101 | 46.8 | log10 vapour pressure (mmHg): 2.53 |
| CC(C)CC(=O)O | -29.3 | 176 | log10 Henry constant (atm·m³/mol): -6.08; log10 vapour pressure (mmHg): -0.356; ready biodegradability: readily biodegradable |
| CC1(C)C2CC3C(C2)C31C | 67.5 | 152 |  |
| C[N+](C)(C)OP(=O)([O-])OP(=O)(O)OC[C@H]1O[C@@H](n2ccc(N)nc2=O)[C@H](O)[C@@H]1O |  |  | ready biodegradability: readily biodegradable |
| CC(=O)C#N |  | 92.3 |  |
| C[C@@H]1C=Cc2ccccc21 |  | 199 |  |
| Ic1ccccc1 | -31.3 | 188 | log10 Koc (L/kg): 3.1; log10 vapour pressure (mmHg): 0.0253 |
| Oc1ccc2cccc(Cl)c2c1 | 101 | 308 |  |
| C=C(C)[C@@H]1CC[C@@H](C)[C@@H](O)C1 |  | 224 |  |
| O=Cc1cc(Br)cc(Br)c1O | 86 |  |  |
| CCc1ccc(C)cc1 | -62.3 | 162 | log10 biodegradation half-life (days): 0.602; log10 vapour pressure (mmHg): 0.477 |
| O=C1C=CCCC1 | -53 | 170 |  |
| CNC(=O)ON=C(C)SC | 78 |  | log10 Koc (L/kg): 1.3; log10 vapour pressure (mmHg): -5.27 |
| C=CC#N | -83.5 | 77.3 | log10 Henry constant (atm·m³/mol): -3.86; log10 vapour pressure (mmHg): 2.04; ready biodegradability: readily biodegradable |

| Structure (SMILES) | melting point [°C] | boiling point [°C] | other results |
| --- | --- | --- | --- |
| O=C(Nc1ccccc1)c1ccccc1 | 163 |  |  |
| O=C1CC(=O)NC(=O)N1 | 248 |  | log10 vapour pressure (mmHg): -7.82; ready biodegradability: readily biodegradable |
| Cc1ccc(O)c(-n2n3c4ccccc4n23)c1 |  |  | ready biodegradability: not readily biodegradable |
| CCCCCCI | -74.2 | 181 | log10 Henry constant (atm·m³/mol): -1.55; log10 vapour pressure (mmHg): 0.147; ready biodegradability: readily biodegradable |
| CC(C)C(O)C(C)(C)CO (stereo not drawn) | 51.5 | 232 | log10 vapour pressure (mmHg): -2.35; ready biodegradability: readily biodegradable; log10 BCF: 0; log10 biotransformation half-life (days): -1.34 |
| Oc1ccc(C(F)(F)F)cc1 | 46 |  |  |
| C/C=C\C(C)(C)C | -135 | 80.4 |  |
| OCc1c2ccccc2cc2ccccc12 |  |  | log10 Koc (L/kg): 3.61 |
| C=Cc1ccccn1 |  | 160 | log10 vapour pressure (mmHg): 0.444; ready biodegradability: not readily biodegradable |
| Cc1cc([N+](=O)[O-])c(N)c([N+](=O)[O-])c1 | 172 |  |  |
| CNc1ccc([N+](=O)[O-])cc1 | 152 |  |  |
| CC(C)OC(=O)c1ccco1 |  | 198 |  |
| CC(=O)c1cc(C(C)C)ccc1C |  | 250 |  |
| CC1=CC[C@@H]2CC1OC2(C)C |  | 184 |  |
| C=CCCC | -165 | 29.9 | log10 Koa: 1.93; log10 vapour pressure (mmHg): 2.8 |
| CCC(C(=O)O)c1ccc(N2Cc3ccccc3C2=O)cc1 (stereo not drawn) | 183 |  |  |
| FC(F)(F)C(F)(F)C(F)(F)C(F)(F)C(F)(F)C(F)(F)F | -87.1 | 56.6 | log10 vapour pressure (mmHg): 2.34 |
| CC1(C)CC(NCCCCCCNC2CC(C)(C)NC(C)(C)C2)CC(C)(C)N1 | 64 |  |  |
| C=CC#CC=C | -88 | 85 |  |
| O=C(O)c1ccc(C(=O)O)o1 | 342 |  |  |
| COc1ccc2c3c([nH]c2c1)[C@H]1C[C@H]2[C@H](C[C@@H](O)[C@H](OC)[C@H]2C(=O)O)CN1CC3 | 242 |  |  |
| c1ccc2c(c1)cc1c3ccccc3c3cccc4ccc2c1c43 | 234 |  |  |
| O=C(O)C1C(c2ccccc2)C(C(=O)O)C1c1ccccc1 (stereo not drawn) | 228 |  |  |
| CC(C)c1cccs1 |  | 153 |  |
